Test results published in paper doi:10.1101/2025.03.04.25323177v1 (medRxiv, 2025).
No end group written: not given here.

Test system: Anti-PACAP antibodies (capture Lu AG20136, detection Lu AG20141)
Assay: Reactivity in PACAP MSD S-PLEX sandwich immunoassay
Assay type: binding
Conditions: sandwich ECL immunoassay

Molecule | Reactivity in PACAP MSD S-PLEX assay
vasoactive intestinal peptide (HSDAVFTDNYTRLRKQMAVKKYLNSILN; ends and bridges not checked; UniProt P01282 125-152, looked up) [VIP] | No reactivity
ceruloplasmin: protein tested for interaction in the PACAP assay (protein, UniProt P00450 20-1065, looked up) Ceruloplasmin: KEKHYYIGIIETTWDYASDHGEKKLISVDTEHSNIYLQNGPDRIGRLYKKALYLQYTDETFRTTIEKPVWLGFLGPIIKAETGDKVYVHLKNLASRPYTFHSHGITYYKEHEGAIYPDNTTDFQRADDKVYPGEQYTYMLLATEEQSPGEGDGNCVTRIYHSHIDAPKDIASGLIGPLIICKKDSLDKEKEKHIDREFVVMFSVVDENFSWYLEDNIKTYCSEPEKVDKDNEDFQESNRMYSVNGYTFGSLPGLSMCAEDRVKWYLFGMGNEVDVHAAFFHGQALTNKNYRIDTINLFPATLFDAYMVAQNPGEWMLSCQNLNHLKAGLQAFFQVQECNKSSSKDNIRGKHVRHYYIAAEEIIWNYAPSGIDIFTKENLTAPGSDSAVFFEQGTTRIGGSYKKLVYREYTDASFTNRKERGPEEEHLGILGPVIWAEVGDTIRVTFHNKGAYPLSIEPIGVRFNKNNEGTYYSPNYNPQSRSVPPSASHVAPTETFTYEWTVPKEVGPTNADPVCLAKMYYSAVEPTKDIFTGLIGPMKICKKGSLHANGRQKDVDKEFYLFPTVFDENESLLLEDNIRMFTTAPDQVDKEDEDFQESNKMHSMNGFMYGNQPGLTMCKGDSVVWYLFSAGNEADVHGIYFSGNTYLWRGERRDTANLFPQTSLTLHMWPDTEGTFNVECLTTDHYTGGMKQKYTVNQCRRQSEDSTFYLGERTYYIAAVEVEWDYSPQREWEKELHHLQEQNVSNAFLDKGEFYIGSKYKKVVYRQYTDSTFRVPVERKAEEEHLGILGPQLHADVGDKVKIIFKNMATRPYSIHAHGVQTESSTVTPTLPGETLTYVWKIPERSGAGTEDSACIPWAYYSTVDQVKDLYSGLIGPLIVCRRPYLKVFNPRRKLEFALLFLVFDENESWYLDDNIKTYSDHPEKVNKDDEEFIESNKMHAINGRMFGNLQGLTMHVGDEVNWYLMGMGNEIDLHTVHFHGHSFQYKHRGVYSSDVFDIFPGTYQTLEMFPRTPGIWLLHCHVTDHIHAGMETTYTVLQNEDTKSG | no interaction
